Test results reported in the NIST ThermoML archive (doi:10.1016/j.jct.2016.03.026).
Numbers after ± are expanded uncertainties.

Assay: xn = mol fraction of the nth substance listed
Details: 313.15 K, Fluid (supercritical or subcritical phases), x1 = 0.97; for mass density: Vibrating tube method; for speed of sound: Frequency=5 MHz, Pulse-echo method

With O=C=O [carbon dioxide] + CO the mass density (17250 kPa) was 821 ± 0.83 kg/m3, the mass density (17275 kPa) was 821.23 ± 0.83 kg/m3 and the mass density (17300 kPa) was 821.48 ± 0.83 kg/m3. It also gave a mass density (17325 kPa) of 821.73 ± 0.82 kg/m3, a mass density (17350 kPa) of 821.98 ± 0.82 kg/m3 and a mass density (17375 kPa) of 822.18 ± 0.82 kg/m3. For the same compound, the mass density (17400 kPa) was 822.42 ± 0.82 kg/m3, the mass density (17425 kPa) was 822.65 ± 0.82 kg/m3 and the mass density (17450 kPa) was 822.87 ± 0.82 kg/m3. For the same compound, the mass density (17475 kPa) was 823.11 ± 0.82 kg/m3, the mass density (17500 kPa) was 823.28 ± 0.82 kg/m3 and the mass density (17525 kPa) was 823.52 ± 0.82 kg/m3. For the same compound, the mass density (17550 kPa) was 823.71 ± 0.82 kg/m3, the mass density (17575 kPa) was 823.99 ± 0.82 kg/m3 and the mass density (17600 kPa) was 824.21 ± 0.82 kg/m3. The mass density (17625 kPa) was 824.46 ± 0.82 kg/m3, the mass density (17650 kPa) was 824.71 ± 0.82 kg/m3 and the mass density (17675 kPa) was 824.95 ± 0.82 kg/m3. The mass density (17700 kPa) was 825.17 ± 0.82 kg/m3, the mass density (17725 kPa) was 825.45 ± 0.82 kg/m3 and the mass density (17750 kPa) was 825.67 ± 0.82 kg/m3. It also gave a mass density (17775 kPa) of 825.94 ± 0.82 kg/m3, a mass density (17800 kPa) of 826.17 ± 0.82 kg/m3 and a mass density (17825 kPa) of 826.41 ± 0.82 kg/m3. For the same compound, the mass density (17850 kPa) was 826.64 ± 0.82 kg/m3, the mass density (17875 kPa) was 826.87 ± 0.82 kg/m3 and the mass density (17900 kPa) was 827.14 ± 0.82 kg/m3. The mass density (17925 kPa) was 827.38 ± 0.82 kg/m3, the mass density (17950 kPa) was 827.61 ± 0.82 kg/m3 and the mass density (17975 kPa) was 827.85 ± 0.82 kg/m3. It also gave a mass density (18000 kPa) of 828.1 ± 0.82 kg/m3, a mass density (18025 kPa) of 828.35 ± 0.82 kg/m3 and a mass density (18050 kPa) of 828.6 ± 0.82 kg/m3. The mass density (18075 kPa) was 828.84 ± 0.82 kg/m3, the mass density (18100 kPa) was 829.11 ± 0.82 kg/m3 and the mass density (18125 kPa) was 829.36 ± 0.82 kg/m3. For the same compound, the mass density (18150 kPa) was 829.59 ± 0.82 kg/m3, the mass density (18175 kPa) was 829.87 ± 0.82 kg/m3 and the mass density (18200 kPa) was 830.13 ± 0.82 kg/m3. The mass density (18225 kPa) was 830.35 ± 0.82 kg/m3, the mass density (18250 kPa) was 830.62 ± 0.82 kg/m3 and the mass density (18275 kPa) was 830.86 ± 0.82 kg/m3. For the same compound, the mass density (18300 kPa) was 831.12 ± 0.82 kg/m3, the mass density (18325 kPa) was 831.37 ± 0.82 kg/m3 and the mass density (18350 kPa) was 831.62 ± 0.82 kg/m3. The mass density (18375 kPa) was 831.85 ± 0.82 kg/m3, the mass density (18400 kPa) was 832.11 ± 0.82 kg/m3 and the mass density (18425 kPa) was 832.31 ± 0.82 kg/m3. For the same compound, the mass density (18450 kPa) was 832.53 ± 0.82 kg/m3, the mass density (18475 kPa) was 832.8 ± 0.82 kg/m3 and the mass density (18500 kPa) was 833.03 ± 0.82 kg/m3. It also gave a mass density (18525 kPa) of 833.28 ± 0.82 kg/m3, a mass density (18550 kPa) of 833.5 ± 0.82 kg/m3 and a mass density (18575 kPa) of 833.75 ± 0.82 kg/m3. The mass density (18600 kPa) was 833.97 ± 0.82 kg/m3, the mass density (18625 kPa) was 834.2 ± 0.82 kg/m3 and the mass density (18650 kPa) was 834.43 ± 0.82 kg/m3. The mass density (18675 kPa) was 834.69 ± 0.82 kg/m3, the mass density (18700 kPa) was 834.94 ± 0.82 kg/m3 and the mass density (18725 kPa) was 835.15 ± 0.82 kg/m3. The mass density (18750 kPa) was 835.38 ± 0.82 kg/m3, the mass density (18775 kPa) was 835.62 ± 0.82 kg/m3 and the mass density (18800 kPa) was 835.84 ± 0.82 kg/m3. It also gave a mass density (18825 kPa) of 836.06 ± 0.82 kg/m3, a mass density (18850 kPa) of 836.28 ± 0.82 kg/m3 and a mass density (18875 kPa) of 836.55 ± 0.82 kg/m3. The mass density (18900 kPa) was 836.78 ± 0.82 kg/m3, the mass density (18925 kPa) was 837.02 ± 0.82 kg/m3 and the mass density (18950 kPa) was 837.22 ± 0.82 kg/m3. The mass density (18975 kPa) was 837.47 ± 0.82 kg/m3, the mass density (19000 kPa) was 837.72 ± 0.82 kg/m3 and the mass density (19025 kPa) was 837.93 ± 0.82 kg/m3. It also gave a mass density (19050 kPa) of 838.15 ± 0.82 kg/m3, a mass density (19075 kPa) of 838.38 ± 0.82 kg/m3 and a mass density (19100 kPa) of 838.61 ± 0.82 kg/m3. For the same compound, the mass density (19125 kPa) was 838.87 ± 0.82 kg/m3, the mass density (19150 kPa) was 839.12 ± 0.82 kg/m3 and the mass density (19175 kPa) was 839.32 ± 0.82 kg/m3. The mass density (19200 kPa) was 839.61 ± 0.82 kg/m3, the mass density (19225 kPa) was 839.82 ± 0.82 kg/m3 and the mass density (19250 kPa) was 840.03 ± 0.82 kg/m3. For the same compound, the mass density (19275 kPa) was 840.27 ± 0.82 kg/m3, the mass density (19300 kPa) was 840.49 ± 0.82 kg/m3 and the mass density (19325 kPa) was 840.71 ± 0.82 kg/m3. It also gave a mass density (19350 kPa) of 840.94 ± 0.82 kg/m3, a mass density (19375 kPa) of 841.18 ± 0.82 kg/m3 and a mass density (19400 kPa) of 841.4 ± 0.82 kg/m3. The mass density (19425 kPa) was 841.61 ± 0.82 kg/m3, the mass density (19450 kPa) was 841.84 ± 0.82 kg/m3 and the mass density (19475 kPa) was 842.08 ± 0.82 kg/m3. It also gave a mass density (19500 kPa) of 842.31 ± 0.82 kg/m3, a mass density (19525 kPa) of 842.53 ± 0.82 kg/m3 and a mass density (19550 kPa) of 842.75 ± 0.82 kg/m3. The mass density (19575 kPa) was 842.96 ± 0.82 kg/m3, the mass density (19600 kPa) was 843.19 ± 0.82 kg/m3 and the mass density (19625 kPa) was 843.37 ± 0.82 kg/m3. The mass density (19650 kPa) was 843.59 ± 0.82 kg/m3, the mass density (19675 kPa) was 843.84 ± 0.82 kg/m3 and the mass density (19700 kPa) was 844.02 ± 0.82 kg/m3. For the same compound, the mass density (19725 kPa) was 844.25 ± 0.82 kg/m3, the mass density (19750 kPa) was 844.43 ± 0.82 kg/m3 and the mass density (19775 kPa) was 844.64 ± 0.82 kg/m3. The mass density (19800 kPa) was 844.89 ± 0.82 kg/m3, the mass density (19825 kPa) was 845.06 ± 0.82 kg/m3 and the mass density (19850 kPa) was 845.27 ± 0.82 kg/m3. For the same compound, the mass density (19875 kPa) was 845.47 ± 0.82 kg/m3, the mass density (19900 kPa) was 845.69 ± 0.82 kg/m3 and the mass density (19925 kPa) was 845.91 ± 0.82 kg/m3. The mass density (19950 kPa) was 846.1 ± 0.82 kg/m3, the mass density (19975 kPa) was 846.29 ± 0.82 kg/m3 and the mass density (20000 kPa) was 846.53 ± 0.82 kg/m3. It also gave a speed of sound (31890 kPa) of 648.6 ± 0.9 m/s, a speed of sound (34940 kPa) of 674.9 ± 0.9 m/s and a speed of sound (39990 kPa) of 714.5 ± 1 m/s. The speed of sound (44940 kPa) was 749.7 ± 1 m/s, the speed of sound (49940 kPa) was 782 ± 1 m/s and the speed of sound (54960 kPa) was 812.2 ± 1.1 m/s. For the same compound, the speed of sound (60140 kPa) was 841.3 ± 1.1 m/s, the speed of sound (65170 kPa) was 867.7 ± 1.1 m/s and the speed of sound (70010 kPa) was 891.8 ± 1.2 m/s. For the same compound, the speed of sound (75170 kPa) was 916.2 ± 1.2 m/s and the speed of sound (80060 kPa) was 938.2 ± 1.2 m/s.
